The source of these data is patent EP4663640A1 (Shanghai Institute of Materia Medica, Chinese Academy of …, priority 2023, dated 2024).

In one data set the target is T1, hERG channel (Homo sapiens, UniProt Q12809).
T1 construct: expressed in transfected cells; host or cells: CHO
Description: hERG channel inhibition assay (Qpatch whole-cell recording, CHO cells expressing hERG). The data set is classed as cell-based. The settings on record: for IC50: Table 3, highest test concentration 40 µM, read-out: inhibitory activity IC50 hERG. How it is done:
(§1) CHO cells expressing hERG protein were cultured in 175cm^2 culture flasks. When the cell density grew to 60-80%, the culture medium was removed, and the cells were washed with 7mL PBS, and then 3mL Detachin was added for digestion. After digestion was complete, 7mL culture medium was added for neutralization, and then centrifuged, the supernatant was aspirated, and 5mL culture medium was added for resuspending to ensure that the cell density was 2-5×10^6/mL.
(§2) The single-cell high-impedance sealing and whole-cell pattern formation process were all automatically completed by the Qpatch instrument. After obtaining the whole-cell recording mode, the cell was clamped at -80 mV. […] This voltage stimulus was applied every 15 seconds. After recording for 2 minutes, the extracellular solution was recorded for 2 minutes, and then the drug administration process began. The compound concentration started from the lowest test concentration, and each test concentration was given for 2 minutes. After all concentrations were given continuously, the positive control compound 10 µM Cisapride was given. At least 3 cells (n≥3) were tested for each concentration.
(§3) The stock solution of compound was diluted with extracellular solution, 5 µL of 20 mM compound stock solution was added to 2495 µL of extracellular solution, 500 times diluted to 40 µM, and then 3 times serial dilution was performed in the extracellular solution containing 0.2% DMSO to obtain the final concentration to be tested.
(§4) (5) Data analysis: The experimental data were analyzed by XLFit software.

Data set [1] concerns the target T2, hERG channel (relative to TRPC5) (Homo sapiens, UniProt Q12809).
T2 construct: expressed in transfected cells; host or cells: CHO
Described as above. The format is cell-based. The settings on record: human, CHO cells expressing hERG; ratio of IC50 values. The procedure:
as §1, §2, §3, §4

Another data set concerns the target T3, hTRPC5 (Homo sapiens, UniProt Q9UL62).
T3 construct: expressed in transfected cells; host or cells: HEK-293
T3 sequence (Q9UL62 1-973): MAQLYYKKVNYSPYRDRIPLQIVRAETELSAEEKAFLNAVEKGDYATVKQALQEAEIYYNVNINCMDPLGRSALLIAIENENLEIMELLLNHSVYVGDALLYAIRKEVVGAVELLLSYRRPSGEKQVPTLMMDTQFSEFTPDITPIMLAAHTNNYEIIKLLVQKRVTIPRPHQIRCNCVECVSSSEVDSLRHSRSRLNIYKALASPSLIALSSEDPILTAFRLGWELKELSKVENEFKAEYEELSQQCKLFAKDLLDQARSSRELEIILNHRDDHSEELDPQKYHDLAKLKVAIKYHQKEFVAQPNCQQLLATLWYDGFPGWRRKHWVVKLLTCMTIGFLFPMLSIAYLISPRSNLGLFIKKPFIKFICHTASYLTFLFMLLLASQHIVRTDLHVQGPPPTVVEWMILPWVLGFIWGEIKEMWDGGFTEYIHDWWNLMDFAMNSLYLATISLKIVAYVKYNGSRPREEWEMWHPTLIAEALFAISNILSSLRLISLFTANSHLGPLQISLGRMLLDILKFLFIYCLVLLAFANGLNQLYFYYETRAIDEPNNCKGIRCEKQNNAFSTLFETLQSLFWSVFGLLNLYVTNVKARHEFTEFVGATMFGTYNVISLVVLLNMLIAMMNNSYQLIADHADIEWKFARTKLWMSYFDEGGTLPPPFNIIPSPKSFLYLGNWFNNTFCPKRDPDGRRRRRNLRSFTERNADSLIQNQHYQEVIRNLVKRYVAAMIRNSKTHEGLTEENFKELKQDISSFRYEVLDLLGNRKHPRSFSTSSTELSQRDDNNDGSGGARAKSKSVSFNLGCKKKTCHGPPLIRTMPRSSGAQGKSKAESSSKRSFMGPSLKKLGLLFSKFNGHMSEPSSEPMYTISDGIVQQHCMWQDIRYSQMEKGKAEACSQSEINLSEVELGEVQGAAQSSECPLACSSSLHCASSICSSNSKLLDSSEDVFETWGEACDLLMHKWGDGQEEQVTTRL
Put plainly: TRPC5 inhibitory activity assay (FLIPR calcium fluorescence, Englerin A stimulation). The format is cell-based. The gist of the method:
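HEK-293 cells expressing the human channel, loaded with 4 µM Fluo-4/AM for 60 min at 37 °C, then stimulated with Englerin A (0.3nM final) and read for 600 s.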

Data set [2] can be described thus: Preliminary pharmacokinetic evaluation, plasma drug concentration after oral administration to mice. The settings on record: male, ICR, mouse, oral 10 mg/kg, Mean ± SD, N = 3. The format is in vivo, ICR mice.
Where [3] appears, read: Table 1, TRPC5 channels, HEK-293 cells expressing hTRPC5, read-out: FLIPR IC50.
Where [4] appears, read: Table 3, read-out: inhibitory activity IC50 TRPC5.

Read-outs that look alike come from different tables or passages of the source.

T1 sequence (Q12809 whole entry): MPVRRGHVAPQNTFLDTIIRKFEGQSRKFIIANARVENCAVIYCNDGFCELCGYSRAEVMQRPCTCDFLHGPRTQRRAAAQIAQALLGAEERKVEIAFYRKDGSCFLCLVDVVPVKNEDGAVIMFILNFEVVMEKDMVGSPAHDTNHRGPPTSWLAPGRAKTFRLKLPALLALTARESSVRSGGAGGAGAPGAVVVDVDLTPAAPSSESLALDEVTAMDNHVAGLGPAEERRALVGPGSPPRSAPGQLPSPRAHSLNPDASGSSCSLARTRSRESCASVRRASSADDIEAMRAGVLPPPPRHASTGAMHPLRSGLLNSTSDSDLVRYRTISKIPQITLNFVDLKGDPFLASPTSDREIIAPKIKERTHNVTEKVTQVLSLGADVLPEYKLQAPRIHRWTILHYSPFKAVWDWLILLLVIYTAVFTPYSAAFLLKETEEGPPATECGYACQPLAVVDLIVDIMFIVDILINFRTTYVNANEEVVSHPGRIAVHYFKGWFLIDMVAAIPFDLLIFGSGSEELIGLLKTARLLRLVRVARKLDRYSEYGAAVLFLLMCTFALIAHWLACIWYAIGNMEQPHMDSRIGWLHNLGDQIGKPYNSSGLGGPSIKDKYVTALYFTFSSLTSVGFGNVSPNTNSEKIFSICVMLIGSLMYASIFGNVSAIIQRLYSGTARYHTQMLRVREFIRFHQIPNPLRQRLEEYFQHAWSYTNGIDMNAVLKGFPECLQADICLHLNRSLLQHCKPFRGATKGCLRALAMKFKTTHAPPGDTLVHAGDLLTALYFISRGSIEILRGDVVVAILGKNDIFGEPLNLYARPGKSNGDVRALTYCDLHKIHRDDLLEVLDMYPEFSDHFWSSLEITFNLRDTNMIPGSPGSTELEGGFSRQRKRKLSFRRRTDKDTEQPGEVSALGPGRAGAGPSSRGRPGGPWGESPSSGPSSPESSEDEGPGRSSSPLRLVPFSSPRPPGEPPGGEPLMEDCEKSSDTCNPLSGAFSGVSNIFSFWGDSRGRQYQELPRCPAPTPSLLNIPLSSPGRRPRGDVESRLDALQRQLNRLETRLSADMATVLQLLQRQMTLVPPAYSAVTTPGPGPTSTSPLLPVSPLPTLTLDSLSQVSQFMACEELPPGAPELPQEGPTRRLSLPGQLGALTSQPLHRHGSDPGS
T2 sequence (Q12809 whole entry): as above

As for `Cn1c(=O)n(CCCO)c(=O)c2c1nc(C1(F)CCC(C(F)(F)F)CC1)n2Cc1ccc(Cl)cc1` (centres unmarked) [Example E21, 7-(4-chlorobenzyl)-8-(1-fluoro-4-(trifluoromethyl)cyclohexyl)-1-(3-hydroxypropyl)-3-methyl-3,7-dihydro-1H-purine-2,6-dione], the results for the IC50 on hERG channel, on hTRPC5 (setting [3]) and at hTRPC5 (setting [4]) were over 40000 nM, 5.1 nM and 5.1 nM, respectively. For the same molecule, the selectivity ratio at 2 min in data set [1] was over 7840.

For the molecule `COC1CCC(F)(c2nc3c(c(=O)n(CCCO)c(=O)n3C)n2Cc2ccc(Cl)cc2)CC1` (centres unmarked) [Example E32, 7-(4-chlorobenzyl)-8-(1-fluoro-4-methoxycyclohexyl)-1-(3-hydroxypropyl)-3-methyl-3,7-dihydro-1H-purine-2,6-dione], the IC50 on hERG channel was found to be 7520 nM; on hTRPC5 (setting [3]), 10.2 nM; on hTRPC5 (setting [4]), 10.2 nM. For the same molecule, in data set [1], the selectivity ratio at 2 min amounted to 737.

As to `Cn1c(=O)n(CCCO)c(=O)c2c1nc(C1(F)CCC(C(F)(F)F)CC1)n2Cc1ccc(F)c(F)c1` (centres unmarked) [Example E52], the IC50 is over 40000 nM on hERG channel and 1.3 nM on hTRPC5. The selectivity ratio at hERG channel (ratio of IC50 values, read-out: relative selectivity hERG/ TRPC5) was over 30800.

For the molecule `Cn1c(=O)n(CCCO)c(=O)c2c1nc(C1(F)CCC(F)(F)CC1)n2Cc1ccc(F)c(Cl)c1` [Example E68, 7-(3-chloro-4-fluorobenzyl)-1-(3-hydroxypropyl)-3-methyl-8-(1,4,4-trifluorocyclohexyl)-3,7-dihydro-1H-purine-2,6-dione], the IC50 was over 40000 nM at hERG channel, 0.58 nM on hTRPC5 (setting [3]) and 0.58 nM at hTRPC5 (setting [4]). For the same molecule, in data set [1], the selectivity ratio at 2 min is over 69000. In data set [2] (1h), the concentration at 1 h turned out to be 2700 ± 54 ng/mL. In data set [2] (4h), this molecule came in with a concentration at 4 h of 1890 ± 213 ng/mL.
